Test results reported in patent US5250426A, “Molecules with antibody combining sites that induce asymmetry” (The Scripps Research Institute, priority 1991, dated 1993).

Tested on: monoclonal antibodies induced by Compound A
Assay: Inhibition of the antibody-catalyzed hydrolysis of Compound 1 by free Compound A
Format: biochemical, mice
Details: all three monoclonal antibodies
Method: The production of Compound 2 by a monoclonal antibody composition of this invention was assayed at a concentration of 20 μM monoclonal antibody and 1.5 mM Compound 1 in 10 percent dimethylsulfoxide (DMSO)/ATE buffer (0.52M ACES, 0.52M Tris, 0.01M ethanolamine pH 9.0) at 25° C. The initial rate of hydrolysis of Compound 1 by the monoclonal antibodies produced by three hybridomas followed Michaelis-Menten kinetics (Table 1 hereinafter).

CC1(OP(=O)(O)Cc2ccc(CCN)cc2)CCCCC1 [Compound A]
inhibition of the hydrolytic reaction by addition of free Compound A: extensive inhibition
